Data published in patent publication US6967215B2, “Tetrahydrocarbazoles, a process for the preparation of those compounds, and the use thereof” (Ciba Specialty Chemicals Corporation, priority 2000, dated 2005).

Columns and labels:
[1] = tested on: Staphylococcus hominis DMS 20328; assay: MIC, microtitre dilution test (growth by optical density at 620 nm); assay type: cell-based; details: Table 2; Staphylococcus hominis DMS 20328
Method: (§1) Casein/soybean flour peptone bouillon for the preparation of pre-cultures of the test bacteria and yeast.
(§2) The test substances are predissolved in dimethyl sulfoxide (DMSO) and tested in a dilution series of 1:2.
(§3) Bacteria and yeast are cultured overnight in CASO bouillon, the mould is cultured overnight on mycological slant agar, and washed off with 10 ml of 0.85% sodium chloride solution (+0.1% TritonX-100).
(§4) All the test organisms are adjusted to an organism count of 1-5×10^6 CFU/ml using 0.85% sodium chloride solution.
(§5) The test substances are pre-pipetted into microtitre plates in an amount of 8 μl per well.
(§6) Pre-diluted organism suspensions are diluted 1:100 in CASO bouillon (bacteria and yeast) or Sabouraud 2% glucose bouillon (mould) and are added in an amount of 192 μl per well to the test substances.
(§7) The test batches are incubated for 48 hours at 37° C. (bacteria and yeast) or for 5 days at 28° C. (mould).
(§8) After incubation, the growth is evaluated by reference to the turbidity of the test batches (optical density) at 620 nm in a microplate reader.
(§9) The minimum inhibitory concentration (MIC value) is the concentration of substance at which (compared with the growth of the control) an appreciable inhibition of growth (≦20% growth) of the test organisms is ascertained.
(§10) One microtitre plate is used for each test organism and substance concentration. All the substances are tested in duplicate.

[2] = tested on: Escherichia coli NCTC 8196; assay: as above; assay type: cell-based; details: Table 2; Escherichia coli
Method: as §1, §2, §3, §4, §5, §6, §7, §8, §9, §10

CC(C)(C)C1CCC2c3c([nH]c4ccccc34)C3C(=O)N(c4ccccc4)C(=O)C3C2C1 (centres unmarked) [Compound 13]
MIC [ppm] S. hominis [1]: >120 ppm
MIC [ppm] E. coli [2]: >120 ppm

CCCN1CCC2c3c([nH]c4ccccc34)C3C(=O)N(c4ccccc4)C(=O)C3C2C1 (centres unmarked) [Compound 15]
MIC [ppm] S. hominis [1]: >120 ppm
MIC [ppm] E. coli [2]: >120 ppm

CC(C)(C)C1CCC2c3c([nH]c4ccc(Br)cc34)C3C(=O)N(c4ccccc4)C(=O)C3C2C1 (centres unmarked) [Compound 19]
MIC [ppm] S. hominis [1]: >120 ppm
MIC [ppm] E. coli [2]: >120 ppm

Cn1c2c(c3ccccc31)C1CCC(C(C)(C)C)CC1C1C(=O)N(c3ccccc3)C(=O)C21 (centres unmarked) [Compound 22]
MIC [ppm] S. hominis [1]: >120 ppm
MIC [ppm] E. coli [2]: >120 ppm

Cn1c2c(c3ccccc31)C1CC(C)(C)NC(C)(C)C1C1C(=O)N(c3ccccc3)C(=O)C21 (centres unmarked) [Compound 24]
MIC [ppm] S. hominis [1]: >120 ppm
MIC [ppm] E. coli [2]: >120 ppm

CC(C)(C)C1CCC2c3c([nH]c4ccccc34)C3C(=O)NC(=O)C3C2C1 (centres unmarked) [Compound 26]
MIC [ppm] S. hominis [1]: 15 ppm
MIC [ppm] E. coli [2]: >120 ppm

CC1(C)CC2c3c([nH]c4ccccc34)C3C(=O)NC(=O)C3C2C(C)(C)N1 (centres unmarked) [Compound 28]
MIC [ppm] S. hominis [1]: >120 ppm
MIC [ppm] E. coli [2]: >120 ppm

CC(C)(C)C1CCC2c3c([nH]c4ccc(Br)cc34)C3C(=O)NC(=O)C3C2C1 (centres unmarked) [Compound 31]
MIC [ppm] S. hominis [1]: 15 ppm
MIC [ppm] E. coli [2]: >120 ppm

O=C1NC(=O)C2C1c1[nH]c3ccc(Br)cc3c1C1CCCCCC12 (centres unmarked) [Compound 32]
MIC [ppm] S. hominis [1]: 3.75 ppm
MIC [ppm] E. coli [2]: >120 ppm

CCCN1CCC2c3c([nH]c4ccc(Br)cc34)C3C(=O)NC(=O)C3C2C1 (centres unmarked) [Compound 33]
MIC [ppm] S. hominis [1]: 30 ppm
MIC [ppm] E. coli [2]: 60 ppm

Cn1c2c(c3ccccc31)C1CCC(C(C)(C)C)CC1C1C(=O)NC(=O)C21 (centres unmarked) [Compound 36]
MIC [ppm] S. hominis [1]: >120 ppm
MIC [ppm] E. coli [2]: >120 ppm

CCN1C(=O)C2c3[nH]c4ccccc4c3C3CCC(C(C)(C)C)CC3C2C1=O (centres unmarked) [Compound 39]
MIC [ppm] S. hominis [1]: >120 ppm
MIC [ppm] E. coli [2]: >120 ppm

CCCN1CCC2c3c([nH]c4ccccc34)C3C(=O)N(CC)C(=O)C3C2C1 (centres unmarked) [Compound 41]
MIC [ppm] S. hominis [1]: >120 ppm
MIC [ppm] E. coli [2]: >120 ppm

CCN1C(=O)C2c3[nH]c4ccc(Br)cc4c3C3CCC(C(C)(C)C)CC3C2C1=O (centres unmarked) [Compound 44]
MIC [ppm] S. hominis [1]: >120 ppm
MIC [ppm] E. coli [2]: >120 ppm

CCCN1CCC2c3c([nH]c4ccc(Br)cc34)C3C(=O)N(CC)C(=O)C3C2C1 (centres unmarked) [Compound 46]
MIC [ppm] S. hominis [1]: 120 ppm
MIC [ppm] E. coli [2]: 120 ppm

CCN1C(=O)C2c3c(c4ccccc4n3C)C3CCC(C(C)(C)C)CC3C2C1=O (centres unmarked) [Compound 49]
MIC [ppm] S. hominis [1]: >120 ppm
MIC [ppm] E. coli [2]: >120 ppm

CCOC(=O)N1CCC2c3c([nH]c4ccccc34)C3C(=O)N(c4ccccc4)C(=O)C3C2C1 (centres unmarked) [Compound 52]
MIC [ppm] S. hominis [1]: >120 ppm
MIC [ppm] E. coli [2]: >120 ppm

CCOC(=O)N1CCC2c3c([nH]c4ccccc34)C3C(=O)NC(=O)C3C2C1 (centres unmarked) [Compound 54]
MIC [ppm] S. hominis [1]: >120 ppm
MIC [ppm] E. coli [2]: >120 ppm

CC(C)N1CCC2c3c([nH]c4ccccc34)C3C(=O)NC(=O)C3C2C1 (centres unmarked) [Compound 55]
MIC [ppm] S. hominis [1]: >120 ppm
MIC [ppm] E. coli [2]: >120 ppm

CC1CCC2C(C1)c1c([nH]c3ccccc13)C1C(=O)NC(=O)C12 (centres unmarked) [Compound 56]
MIC [ppm] S. hominis [1]: 30 ppm
MIC [ppm] E. coli [2]: >120 ppm

CCCCCCC1CCC2C3C(=O)NC(=O)C3c3[nH]c4ccccc4c3C12 (centres unmarked) [Compound 57]
MIC [ppm] S. hominis [1]: >120 ppm
MIC [ppm] E. coli [2]: >120 ppm

O=C1NC(=O)C2C1c1[nH]c3ccccc3c1C1CCN(Cc3ccccc3)CC12 (centres unmarked) [Compound 60]
MIC [ppm] S. hominis [1]: 120 ppm
MIC [ppm] E. coli [2]: >120 ppm

CC1(C)CC2c3c([nH]c4ccccc34)C3C(=O)NC(=O)C3C2C(C)(C)C1 (centres unmarked) [Compound 63]
MIC [ppm] S. hominis [1]: 7.5 ppm
MIC [ppm] E. coli [2]: >120 ppm

CCOC(=O)N1CCC2c3c([nH]c4ccc(Br)cc34)C3C(=O)NC(=O)C3C2C1 (centres unmarked) [Compound 68]
MIC [ppm] S. hominis [1]: >120 ppm
MIC [ppm] E. coli [2]: >120 ppm

O=C1NC(=O)C2C1c1[nH]c3ccc(Br)cc3c1C1CCCCCCC12 (centres unmarked) [Compound 73]
MIC [ppm] S. hominis [1]: 60 ppm
MIC [ppm] E. coli [2]: >120 ppm

CCc1cccc2c3c([nH]c12)C1C(=O)NC(=O)C1C1CCCCC31 (centres unmarked) [Compound 74]
MIC [ppm] S. hominis [1]: 60 ppm
MIC [ppm] E. coli [2]: >120 ppm

CCc1cccc2c3c([nH]c12)C1C(=O)NC(=O)C1C1CCCC31 (centres unmarked) [Compound 75]
MIC [ppm] S. hominis [1]: 30 ppm
MIC [ppm] E. coli [2]: >120 ppm

CCc1cccc2c3c([nH]c12)C1C(=O)NC(=O)C1C1CCCCCC31 (centres unmarked) [Compound 77]
MIC [ppm] S. hominis [1]: 15 ppm
MIC [ppm] E. coli [2]: >120 ppm

CCCCCCC1CCC2C3C(=O)NC(=O)C3c3[nH]c4c(CC)cccc4c3C12 (centres unmarked) [Compound 83]
MIC [ppm] S. hominis [1]: >120 ppm
MIC [ppm] E. coli [2]: >120 ppm

CCc1cccc2c3c([nH]c12)C1C(=O)NC(=O)C1C1CCCCCCC31 (centres unmarked) [Compound 89]
MIC [ppm] S. hominis [1]: 7.5 ppm
MIC [ppm] E. coli [2]: >120 ppm

CCc1cccc2c3c([nH]c12)C1C(=O)NC(=O)C1C1C3CC(C)(C)CC1(C)C (centres unmarked) [Compound 90]
MIC [ppm] S. hominis [1]: >120 ppm
MIC [ppm] E. coli [2]: >120 ppm

COc1ccc2[nH]c3c(c2c1)C1CCCCC1C1C(=O)NC(=O)C31 (centres unmarked) [Compound 91]
MIC [ppm] S. hominis [1]: >120 ppm
MIC [ppm] E. coli [2]: >120 ppm

COc1ccc2[nH]c3c(c2c1)C1CCCC1C1C(=O)NC(=O)C31 (centres unmarked) [Compound 92]
MIC [ppm] S. hominis [1]: >120 ppm
MIC [ppm] E. coli [2]: >120 ppm

COc1ccc2[nH]c3c(c2c1)C1CCCCCC1C1C(=O)NC(=O)C31 (centres unmarked) [Compound 94]
MIC [ppm] S. hominis [1]: >120 ppm
MIC [ppm] E. coli [2]: >120 ppm

CCCC1CCC2c3c([nH]c4ccc(OC)cc34)C3C(=O)NC(=O)C3C2C1 (centres unmarked) [Compound 101]
MIC [ppm] S. hominis [1]: >120 ppm
MIC [ppm] E. coli [2]: >120 ppm

CCC(C)(C)C1CCC2c3c([nH]c4ccc(OC)cc34)C3C(=O)NC(=O)C3C2C1 (centres unmarked) [Compound 102]
MIC [ppm] S. hominis [1]: 60 ppm
MIC [ppm] E. coli [2]: >120 ppm

CCN1CCC2c3c([nH]c4ccc(OC)cc34)C3C(=O)NC(=O)C3C2C1 (centres unmarked) [Compound 103]
MIC [ppm] S. hominis [1]: >120 ppm
MIC [ppm] E. coli [2]: >120 ppm

COc1ccc2[nH]c3c(c2c1)C1CCN(Cc2ccccc2)CC1C1C(=O)NC(=O)C31 (centres unmarked) [Compound 104]
MIC [ppm] S. hominis [1]: >120 ppm
MIC [ppm] E. coli [2]: >120 ppm

COc1ccc2[nH]c3c(c2c1)C1CCN(C)CC1C1C(=O)NC(=O)C31 (centres unmarked) [Compound 105]
MIC [ppm] S. hominis [1]: >120 ppm
MIC [ppm] E. coli [2]: >120 ppm

COc1ccc2[nH]c3c(c2c1)C1CCCCCCC1C1C(=O)NC(=O)C31 (centres unmarked) [Compound 107]
MIC [ppm] S. hominis [1]: 120 ppm
MIC [ppm] E. coli [2]: >120 ppm

COc1ccc2[nH]c3c(c2c1)C1CC(C)(C)CC(C)(C)C1C1C(=O)NC(=O)C31 (centres unmarked) [Compound 108]
MIC [ppm] S. hominis [1]: >120 ppm
MIC [ppm] E. coli [2]: >120 ppm

CN1C(=O)C2c3[nH]c4ccccc4c3C3CCC(C(C)(C)C)CC3C2C1=O (centres unmarked) [Compound 111]
MIC [ppm] S. hominis [1]: 60 ppm
MIC [ppm] E. coli [2]: >120 ppm

CN1C(=O)C2c3[nH]c4ccccc4c3C3CC(C)(C)NC(C)(C)C3C2C1=O (centres unmarked) [Compound 113]
MIC [ppm] S. hominis [1]: >120 ppm
MIC [ppm] E. coli [2]: >120 ppm
